Assay results reported in patent US12076307B2, “Compositions for prevention or treatment of acute radiation syndrome and other radiation exposure” (priority 2017, dated 2024).

Legend:
Sprague Dawley rats = experiment: Respiratory function in rats; format: in vivo, rat; details: single oral doses up to 2000 mg/kg
Procedure: EC-18 was orally administered to Sprague Dawley rats (n=6 males/group) at single doses of 0, 500, 1000 and 2000 mg/kg. Tidal volume, respiration rate per minute and minute volume were measured with whole-body plethysmograph at 0 (pre-dose), 1, 2 and 4-hr post-dose.

[1] = Embryo-fetal developmental toxicity study, NZW rabbit; format: in vivo; details: NZW, rabbit, in vivo; definitive study; Oral 13 days
Description: (§1) Various toxicology studies have been performed. All studies were GLP-compliant unless otherwise noted.

NZW rabbit = experiment: as above; format: in vivo; details: Oral 13 days
Description: as §1

CXCL8 = CXCL8 release in HaCaT cells treated with CM or rhHMGB1; format: cell-based, human
Procedure: An additional experiment was tested for assessing whether EC-18 treatment leads to early termination of the RIPK1/3-MLKL-mediated downstream necroptosis pathway. This was performed by using DAMP-containing conditioned media (CM) harvested from HaCaT cells, irradiated for 48 hrs, and analyzed after 2 or 72 hrs of EC-18 treatment. […] To further confirm that DAMPs in CM contribute to the activation of a necroptosis signaling pathway in a paracrine manner, recombinant human HMGB1 (rhHMGB1) was treated directly to the normal HaCaT cells. The rhHMGB1 elevated the phosphorylation of RIPK1/3 and MLKL after 2 hrs and subsequently released HMGB1 and HSP90 (FIGS. 35C-35D). To evaluate whether EC-18 mitigates the activation of RIPK1/3 and MLKL, 10 or 100 μg/mL of EC-18 was treated before the addition of CM or rhHMGB1. As a result, EC-18 lowered the phosphorylation of RIPK/3 and MLKL in both CM- and rhHMGB1-treated cells after 2 hrs. Release of HMGB1 and Hsp90 was also subsided by EC-18 after 72 hrs of post addition of CM or rhHMGB1 to the cells (FIGS. 35A-35D). TLR4-induced necroptosis signaling pathway caused by DAMP release produces cytokines, such as CXCL8, a chemotactic cytokine for neutrophils. As CXCL8 increases upon tissue damage, it was measured in cells treated with CM or rhHMGB1 as a measure of inflammation. CXCL8 of CM from cells treated with chemo and radiotherapy was used for this evaluation. […] Moreover, rhHMGB1 increased the production of CXCL8, modulated by EC-18.

Beagle dog = experiment: Repeated dose toxicity, Beagle dog; format: in vivo; details: Oral
Description: as §1

[2] = Repeated dose toxicity, Beagle dog; format: in vivo; details: Beagle, dog, in vivo, Oral
Description: as §1

[3] = Plasma concentrations of EC-18 in non-irradiated and irradiated mice; format: in vivo; details: male, Balb/c, mouse, po
Procedure: A day after 6.11 Gy gamma-radiation, both irradiated and non-irradiated male Balb/c mice (n=5) were orally administered daily with 50, 100, 250 or 500 mg/kg of EC-18 up to 14 days and analyzed for PK parameters on days 7 and 14 post-radiation (Table 21).

[4] = In vitro metabolite screening, monkey liver microsomes; format: in vitro ADME; details: NHP, N=2
Procedure: [^14C]EC-18 or the positive control (7-ethoxycoumarin; 7-EC) reacted with microsomes prepared from hepatocytes of rats, dogs, monkeys, and humans, with or without cofactors, for 60 and 120 min. Then, the residual EC-18 concentration over time was measured by LC-RID ([^14C]EC-18) or LC-MS/MS (7-EC) (FIG. 63 and FIG. 64).
The LC-RID chromatographic profiles of radioactive metabolites produced in the 2-hr incubation reaction mixtures of the same test systems A, B, and C used to assess the metabolic and non-metabolic elimination rates of EC-18 were compared to the LC-UV chromatographic profiles of the synthetic reference material. […] The relative radioactivity of EC-18 accounted for 42-67% of total radioactivity. The peaks designated as M2, M3, and M5 were also determined in all species, and their relative radioactivity accounted for 12-34% of total radioactivity. The peaks of M4 and M6 were determined in monkeys and humans. M1 was abundantly detected in all species, but it was assumed to be a peak of early elution. The LC-UV chromatograms of reaction mixtures in each test system (FIGS. 65A-65C) and the relative radioactivity of the screened metabolites are shown in Table 25.

[5] = 50 mg/kg, day 7, 50 mg/kg oral daily, Irradiated 6.11 Gy
[6] = 50 mg/kg, day 7, 50 mg/kg oral daily, Non-irradiated
[7] = 50 mg/kg, day 14, 50 mg/kg oral daily, Irradiated 6.11 Gy
[8] = 50 mg/kg, day 14, 50 mg/kg oral daily, Non-irradiated
[9] = 100 mg/kg, day 7, 100 mg/kg oral daily, Irradiated 6.11 Gy
[10] = 100 mg/kg, day 7, 100 mg/kg oral daily, Non-irradiated
[11] = 100 mg/kg, day 14, 100 mg/kg oral daily, Irradiated 6.11 Gy
[12] = 100 mg/kg, day 14, 100 mg/kg oral daily, Non-irradiated
[13] = 250 mg/kg, day 7, 250 mg/kg oral daily, Irradiated 6.11 Gy
[14] = 250 mg/kg, day 7, 250 mg/kg oral daily, Non-irradiated
[15] = 250 mg/kg, day 14, 250 mg/kg oral daily, Irradiated 6.11 Gy
[16] = 250 mg/kg, day 14, 250 mg/kg oral daily, Non-irradiated
[17] = 500 mg/kg, day 7, 500 mg/kg oral daily, Irradiated 6.11 Gy
[18] = 500 mg/kg, day 7, 500 mg/kg oral daily, Non-irradiated
[19] = 500 mg/kg, day 14, 500 mg/kg oral daily, Irradiated 6.11 Gy
[20] = 500 mg/kg, day 14, 500 mg/kg oral daily, Non-irradiated

With `CCCCC/C=C\C/C=C\CCCCCCCC(=O)OC(COC(C)=O)COC(=O)CCCCCCCCCCCCCCC` (stereo not shown) [EC-18, 1-palmitoyl-2-linoleoyl-3-acetylglycerol] the respiratory function (Sprague Dawley rats) was “did affect the respiratory function”, the NOAEL at 13 days [1] was 500 mg/kg/day and the findings (NZW rabbit; DRF study, 0, 125, 250, 500 mg/kg) was “No specific findings”. The mortality (NZW rabbit; DRF study, 250 mg/kg dose group, day 8 of pregnancy, attributed to loss of appetite before dosing) was “A single case of death”, the mortality (NZW rabbit; definitive study, 0, 125, 250, 500 mg/kg) was “No dead animals” and the CXCL8 level (CXCL8; CM-treated cells) was “decreased in a dose-dependent manner”. For the same compound, the CXCL8 production (CXCL8; rhHMGB1-treated cells) was “modulated”, the mortality (Beagle dog; 2 weeks, 0, 500, 1000, 2000 mg/kg) was “No dead animals” and the findings (Beagle dog; 2 weeks, males and females in 1000 and 2000 mg/kg dose groups) was “Grayish stool observed”. For the same compound, the mortality (Beagle dog; 4 weeks (2-week recovery)) was “No dead animals”, the findings (Beagle dog; 4 weeks (2-week recovery), drug administration groups) was “Grayish stool observed” and the “findings (soft stool and grayish stool; early diarrhea; no toxicological significance)” value (Beagle dog; 9 months (4-week recovery)) was “Dose-dependent soft”. For the same compound, the mortality (Beagle dog; 9 months (4-week recovery)) was “No dead animals”, the “findings (grayish stool observed)” value (Beagle dog; 13 weeks (4-week recovery)) was “Dose-dependent grayish” and the mortality (Beagle dog; 13 weeks (4-week recovery)) was “No dead animals”. For the same compound, the NOAEL at 2 weeks ([2]; 2 weeks) was > 2000 mg/kg/day, the NOAEL at 4 weeks ([2]; 4 weeks (2-week recovery)) was > 2000 mg/kg/day and the NOAEL at 9 months ([2]; 9 months (4-week recovery)) was 2000 mg/kg/day. For the same compound, the NOAEL at 13 weeks ([2]; 13 weeks (4-week recovery)) was > 2000 mg/kg/day, the AUC(0-t) [3, 5] was 39.5 ± 14.8 ng·h/mL and the Cmax [3, 5] was 7.8 ± 3.4 ng/mL. For the same compound, the Tmax [3, 5] was 0.4 ± 0.3 h, the AUC(0-t) [3, 6] was 21.6 ± 11.7 ng·h/mL and the Cmax [3, 6] was 2.7 ± 1.4 ng/mL. It also gave a Tmax [3, 6] of 2.8 ± 2.4 h, an AUC(0-t) [3, 7] of 8.6 ± 3.7 ng·h/mL and a Cmax [3, 7] of 1.9 ± 0.6 ng/mL. It also gave a Tmax [3, 7] of 3.1 ± 4.5 h, an AUC(0-t) [3, 8] of 38.5 ± 10.3 ng·h/mL and a Cmax [3, 8] of 4.1 ± 1.4 ng/mL. It also gave a Tmax [3, 8] of 7.8 ± 8.4 h, an AUC(0-t) [3, 9] of 41.3 ± 12.1 ng·h/mL and a Cmax [3, 9] of 9.8 ± 2.9 ng/mL. It also gave a Tmax [3, 9] of 0.7 ± 0.2 h, an AUC(0-t) [3, 10] of 25.3 ± 7.1 ng·h/mL and a Cmax [3, 10] of 9.7 ± 4.7 ng/mL. For the same compound, the Tmax [3, 10] was 5.2 ± 8.6 h, the AUC(0-t) [3, 11] was 80.8 ± 124 ng·h/mL and the Cmax [3, 11] was 17.2 ± 23.3 ng/mL. For the same compound, the Tmax [3, 11] was 1.8 ± 2.1 h, the AUC(0-t) [3, 12] was 51.3 ± 22.6 ng·h/mL and the Cmax [3, 12] was 12.8 ± 9.9 ng/mL. The Tmax [3, 12] was 7.6 ± 8.5 h, the AUC(0-t) [3, 13] was 73.9 ± 27.1 ng·h/mL and the Cmax [3, 13] was 31.4 ± 14.9 ng/mL. It also gave a Tmax [3, 13] of 0.6 ± 0.2 h, an AUC(0-t) [3, 14] of 40.7 ± 23.4 ng·h/mL and a Cmax [3, 14] of 16.4 ± 11.2 ng/mL. The Tmax [3, 14] was 0.6 ± 0.2 h, the AUC(0-t) [3, 15] was 16.2 ± 7.8 ng·h/mL and the Cmax [3, 15] was 17.9 ± 17.5 ng/mL. The Tmax [3, 15] was 0.6 ± 0.2 h, the AUC(0-t) [3, 16] was 76.6 ± 9.8 ng·h/mL and the Cmax [3, 16] was 19.4 ± 12.3 ng/mL. For the same compound, the Tmax [3, 16] was 2.8 ± 4.2 h, the AUC(0-t) [3, 17] was 123 ± 17.8 ng·h/mL and the Cmax [3, 17] was 60.7 ± 14.6 ng/mL. For the same compound, the Tmax [3, 17] was 0.7 ± 0.2 h, the AUC(0-t) [3, 18] was 57.1 ± 39.7 ng·h/mL and the Cmax [3, 18] was 14.2 ± 3 ng/mL. For the same compound, the Tmax [3, 18] was 5.2 ± 8.6 h, the AUC(0-t) [3, 19] was 67.3 ± 34.1 ng·h/mL and the Cmax [3, 19] was 61 ± 42.1 ng/mL. It also gave a Tmax [3, 19] of 0.6 ± 0.2 h, an AUC(0-t) [3, 20] of 75.9 ± 16 ng·h/mL and a Cmax [3, 20] of 32.1 ± 8 ng/mL. The Tmax [3, 20] was 0.5 h, the “Mean Peak Area in LC-RID” value ([4]; A (NADPH added), [14C]EC-18 2 hrs) was 46.8% and the “Mean Peak Area in LC-RID” value ([4]; B (NADPH, PAPS, UDPGA added), 2 hrs) was 46.0%. The “Mean Peak Area in LC-RID” value ([4]; C (no cofactor added), 2 hrs) was 41.8%.
